Measured values taken from patent US20250059174A1, “Pharmaceutical Compounds and Compositions as C-Kit Kinase Inhibitors” (Enanta Pharmaceuticals, Inc., priority 2023, published 2025).

Legend:
[1] = tested on: M-07e cells; assay: M-07e cellular assay (SCF-mediated cell proliferation); assay type: cell-based; conditions: Homo sapiens, 72 hours, CellTiter Glo
In short: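 CellTiter Glo luminescence after 72 h compound exposure in SCF (EC90)-stimulated M-07e cells expressing endogenous human c-KIT.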

[2] = molecular target: Recombinant human c-KIT kinase (Homo sapiens (Human), UniProt P10721); assay: c-KIT kinase chemiluminescence assay (ADP-Glo); assay type: biochemical; conditions: ATP 50 μM
Recombinant human c-KIT kinase, sequence (P10721 26-976): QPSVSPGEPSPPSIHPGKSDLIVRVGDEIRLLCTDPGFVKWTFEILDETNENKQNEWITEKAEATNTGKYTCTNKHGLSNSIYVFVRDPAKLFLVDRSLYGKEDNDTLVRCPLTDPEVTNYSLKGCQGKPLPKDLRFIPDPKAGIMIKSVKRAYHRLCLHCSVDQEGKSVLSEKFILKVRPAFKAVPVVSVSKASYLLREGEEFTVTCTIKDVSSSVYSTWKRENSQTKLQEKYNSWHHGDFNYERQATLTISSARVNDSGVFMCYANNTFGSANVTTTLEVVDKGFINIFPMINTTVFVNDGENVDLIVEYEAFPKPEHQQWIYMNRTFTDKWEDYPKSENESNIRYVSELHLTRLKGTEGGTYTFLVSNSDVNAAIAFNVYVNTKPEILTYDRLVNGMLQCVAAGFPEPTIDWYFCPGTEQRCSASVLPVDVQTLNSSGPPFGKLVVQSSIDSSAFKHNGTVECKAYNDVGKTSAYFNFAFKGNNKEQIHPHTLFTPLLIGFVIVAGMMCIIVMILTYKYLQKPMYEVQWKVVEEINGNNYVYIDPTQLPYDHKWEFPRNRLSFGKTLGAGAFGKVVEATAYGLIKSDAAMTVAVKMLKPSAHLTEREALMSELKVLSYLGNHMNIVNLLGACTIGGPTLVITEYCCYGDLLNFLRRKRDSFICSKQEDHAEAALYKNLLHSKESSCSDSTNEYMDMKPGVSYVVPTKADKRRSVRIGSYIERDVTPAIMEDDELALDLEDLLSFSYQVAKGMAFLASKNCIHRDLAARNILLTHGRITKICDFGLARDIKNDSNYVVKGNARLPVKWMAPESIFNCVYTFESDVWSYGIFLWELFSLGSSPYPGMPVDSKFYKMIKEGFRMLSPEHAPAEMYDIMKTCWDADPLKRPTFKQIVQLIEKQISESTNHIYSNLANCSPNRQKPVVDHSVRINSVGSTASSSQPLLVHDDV
In short: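 ADP formed by c-KIT on polyEY over 2 h at RT (after 30 min enzyme preincubation; Tris pH 7.5, MgCl2, BSA, DTT buffer) was detected by ADP-Glo luminescence. IC50 and Hill slope were fitted to control-normalized activity across compound concentrations.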

Compound | EC50 [1] [nM] | IC50 [2] [nM]
CC(=O)Nc1nc(C)c(-c2ccn3ncc(C(=O)Nc4cc(-c5noc([C@H]6C[C@@H]6F)n5)ccc4C)c3c2)c(C)n1 [Example 171-31] | < 100 | 100 to 1000
Cc1nccc(-c2ccn3ncc(C(=O)Nc4cc(-c5noc([C@H]6C[C@@H]6F)n5)ccc4C)c3c2)n1 [Example 171] | < 100 | < 100
Cc1ccc(-c2noc([C@H]3C[C@@H]3F)n2)cc1NC(=O)c1cnn2ccc(N3CCC4(COC4)C3)cc12 [Example 173] | < 100 | < 100
Cc1ccc(-c2noc([C@H]3C[C@@H]3F)n2)cc1NC(=O)c1cnn2ccc(N3C[C@@H](CS(C)(=O)=O)[C@@H]3C)cc12 [Example 174] | < 100 | < 100
Cc1ccc(-c2noc([C@H]3C[C@@H]3F)n2)cc1NC(=O)c1cnn2ccc(N3C[C@@H](CS(C)(=O)=O)[C@H]3C)cc12 [Example 175] | < 100 | < 100
Cc1ccc(-c2noc([C@H]3C[C@@H]3F)n2)cc1NC(=O)c1cnn2ccc(N3CCC34COC4)cc12 [Example 176] | < 100 | < 100
Cc1ccc(-c2noc([C@H]3C[C@@H]3F)n2)cc1NC(=O)c1cnn2ccc(N3CC4(CN(CC(F)(F)F)C4)C3)cc12 [Example 177] | < 100 | < 100
Cc1ccc(-c2noc([C@H]3C[C@@H]3F)n2)cc1NC(=O)c1cnn2ccc(N3CC4(CNC(=O)C4)C3)cc12 [Example 178] | < 100 | < 100
Cc1ccc(-c2noc([C@H]3C[C@@H]3F)n2)cc1NC(=O)c1cnn2ccc(N3CC(C(C)(C)O)C3)cc12 [Example 179] | < 100 | < 100
Cc1ccc(-c2noc([C@H]3C[C@@H]3F)n2)cc1NC(=O)c1cnn2ccc(N3CC(O)(C(F)(F)F)C3)cc12 [Example 180] | < 100 | < 100
Cc1ccc(-c2noc([C@H]3C[C@@H]3F)n2)cc1NC(=O)c1cnn2ccc(N3CC4(C3)CC(C)(O)C4)cc12 [Example 181] | < 100 | < 100
Cc1ccc(-c2noc([C@H]3C[C@@H]3F)n2)cc1NC(=O)c1cnn2ccc(N3CC(CO)(CCl)C3)cc12 [Example 182] | < 100 | < 100
Cc1ccc(-c2noc([C@H]3C[C@@H]3F)n2)cc1NC(=O)c1cnn2ccc(N3CC4(CCOC4)C3)cc12 [Example 183] | < 100 | < 100
Cc1ccc(-c2noc([C@H]3C[C@@H]3F)n2)cc1NC(=O)c1cnn2ccc(N3CCC4(CC3)CC(C)(O)C4)cc12 [Example 184] | < 100 | < 100
Cc1ccc(-c2noc([C@H]3C[C@@H]3F)n2)cc1NC(=O)c1cnn2ccc(N3CC4(CCN(CC(F)F)C4)C3)cc12 [Example 185] | < 100 | < 100
COC1CC2(C1)CN(c1ccn3ncc(C(=O)Nc4cc(-c5noc([C@H]6C[C@@H]6F)n5)ccc4C)c3c1)C2 [Example 186] | < 100 | < 100
Cc1ccc(-c2noc([C@H]3C[C@@H]3F)n2)cc1NC(=O)c1cnn2ccc(N3CC4(C3)CS(=O)(=O)C4)cc12 [Example 187] | < 100 | < 100
Cc1ccc(-c2noc([C@H]3C[C@@H]3F)n2)cc1NC(=O)c1cnn2ccc(N3CC4(CCN(CC(F)(F)F)C4)C3)cc12 [Example 188] | 100 to 1000 | 100 to 1000
Cc1ccc(-c2noc([C@H]3C[C@@H]3F)n2)cc1NC(=O)c1cnn2ccc(N3C4COCC3C4)cc12 [Example 189] | < 100 | < 100
Cc1ccc(-c2noc([C@H]3C[C@@H]3F)n2)cc1NC(=O)c1cnn2ccc(N3CCN(C(=O)OC(C)(C)C)C[C@H]3C)cc12 [Example 190] | 100 to 1000 | 100 to 1000
Cc1ccc(-c2noc([C@H]3C[C@@H]3F)n2)cc1NC(=O)c1cnn2ccc(N3CCN(C(=O)OC(C)(C)C)C[C@@H]3C)cc12 [Example 191] | < 100 | < 100
Cc1ccc(-c2noc([C@H]3C[C@@H]3F)n2)cc1NC(=O)c1cnn2ccc(N3CC[C@@H](NC(=O)OC(C)(C)C)C3)cc12 [Example 192] | 100 to 1000 | 100 to 1000
Cc1ccc(-c2noc([C@H]3C[C@@H]3F)n2)cc1NC(=O)c1cnn2ccc(N3CC[C@H](NC(=O)OC(C)(C)C)C3)cc12 [Example 193] | 100 to 1000 | 100 to 1000
Cc1ccc(-c2noc([C@H]3C[C@@H]3F)n2)cc1NC(=O)c1cnn2ccc(N3CC4CC(C3)O4)cc12 [Example 194] | < 100 | < 100
Cc1ccc(-c2noc([C@H]3C[C@@H]3F)n2)cc1NC(=O)c1cnn2ccc(N3CCNC[C@H]3C)cc12 [Example 195] | 100 to 1000 | < 100
Cc1ccc(-c2noc([C@H]3C[C@@H]3F)n2)cc1NC(=O)c1cnn2ccc(N3CCNC[C@@H]3C)cc12 [Example 196] | < 100 | < 100
Cc1ccc(-c2noc([C@H]3C[C@@H]3F)n2)cc1NC(=O)c1cnn2ccc(N3CC[C@@H](N)C3)cc12 [Example 197] | < 100 | 100 to 1000

Compound | EC50 [1] [nM] | IC50 [2] [nM]
Cc1ccc(-c2noc([C@H]3C[C@@H]3F)n2)cc1NC(=O)c1cnn2ccc(N3CC[C@H](N)C3)cc12 [Example 198] | 100 to 1000 | < 100
Cc1ccc(-c2noc([C@H]3C[C@@H]3F)n2)cc1NC(=O)c1cnn2ccc(N3C[C@H]4C[C@@H]3CO4)cc12 [Example 199] | < 100 | < 100
Cc1ccc(-c2noc([C@H]3C[C@@H]3F)n2)cc1NC(=O)c1cnn2ccc(N3C[C@@H]4C[C@H]3CO4)cc12 [Example 200] | < 100 | < 100
Cc1ccc(-c2noc([C@H]3C[C@@H]3F)n2)cc1NC(=O)c1cnn2ccc(N3CCCC4(COC4)C3)cc12 [Example 201] | < 100 | < 100
Cc1ccc(-c2noc([C@H]3C[C@@H]3F)n2)cc1NC(=O)c1cnn2ccc(N3CC4(CN(C)C4)C3)cc12 [Example 202] | 100 to 1000 | 100 to 1000
Cc1ccc(-c2noc([C@H]3C[C@@H]3F)n2)cc1NC(=O)c1cnn2ccc(N3CC[C@H](N(C)C(=O)OC(C)(C)C)C3)cc12 [Example 203] | 100 to 1000 | < 100
Cc1ccc(-c2noc([C@H]3C[C@@H]3F)n2)cc1NC(=O)c1cnn2ccc(N3C4CCC3CC(O)C4)cc12 (stereo partly shown) [Example 204] | < 100 | < 100
CN[C@H]1CCN(c2ccn3ncc(C(=O)Nc4cc(-c5noc([C@H]6C[C@@H]6F)n5)ccc4C)c3c2)C1 [Example 205] | 100 to 1000 | < 100
Cc1ccc(-c2noc([C@H]3C[C@@H]3F)n2)cc1NC(=O)c1cnn2cc(F)c(N3CC4(COC4)C3)cc12 [Example 206] | 100 to 1000 | 100 to 1000
Cc1ccc(-c2noc([C@H]3C[C@@H]3F)n2)cc1NC(=O)c1cnn2ccc(N3CC4(CN(C(=O)OC(C)(C)C)C4)C3)cc12 [Example 207] | 100 to 1000 | < 100
Cc1ccc(-c2noc([C@H]3C[C@@H]3F)n2)cc1NC(=O)c1cnn2ccc(N3CC(C(=O)OC(C)(C)C)C3)cc12 [Example 208] | 100 to 1000 | 100 to 1000
Cc1ccc(-c2noc([C@H]3C[C@@H]3F)n2)cc1NC(=O)c1cnn2ccc(N3CC[C@H]3C(=O)OC(C)(C)C)cc12 [Example 209] | 100 to 1000 | 100 to 1000
Cc1ccc(-c2noc([C@H]3C[C@@H]3F)n2)cc1NC(=O)c1cnn2ccc(N3CC4CCC3CN4C(=O)OC(C)(C)C)cc12 (stereo partly shown) [Example 210] | 100 to 1000 | 100 to 1000
Cc1ccc(-c2noc([C@H]3C[C@@H]3F)n2)cc1NC(=O)c1cnn2ccc(N3CC4(CNC4)C3)cc12 [Example 211] | 100 to 1000 | < 100
Cc1ccc(-c2noc([C@H]3C[C@@H]3F)n2)cc1NC(=O)c1cnn2ccc(N3CC4(CN(CC(F)F)C4)C3)cc12 [Example 212] | < 100 | < 100
Cc1ccc(-c2noc([C@H]3C[C@@H]3F)n2)cc1NC(=O)c1cnn2ccc(N3CC4(C3)CC(F)(F)C4)cc12 [Example 213] | < 100 | < 100
Cc1ccc(-c2noc([C@H]3C[C@@H]3F)n2)cc1NC(=O)c1cnn2ccc(N3CCO[C@H](C)C3)cc12 [Example 214] | < 100 | < 100
Cc1ccc(-c2noc([C@H]3C[C@@H]3F)n2)cc1NC(=O)c1cnn2ccc(N3CCO[C@@H](C)C3)cc12 [Example 215] | < 100 | < 100
Cc1ccc(-c2noc([C@H]3C[C@@H]3F)n2)cc1NC(=O)c1cnn2ccc(N3CCC4(C3)CC4(F)F)cc12 (stereo partly shown) [Example 216] | < 100 | < 100
Cc1ccc(-c2noc([C@H]3C[C@@H]3F)n2)cc1NC(=O)c1cnn2ccc(N3CC4(C3)CC4(F)F)cc12 [Example 217] | < 100 | < 100
CC(=O)N1CC(Oc2ccn3ncc(C(=O)Nc4cc(-c5noc([C@H]6C[C@@H]6F)n5)ccc4C)c3c2)C1 [Example 218] | 100 to 1000 | 100 to 1000
Cc1ccc(-c2noc([C@H]3C[C@@H]3F)n2)cc1NC(=O)c1cnn2ccc(OC3COC3)cc12 [Example 219] | < 100 | < 100
Cc1ccc(-c2noc([C@H]3C[C@@H]3F)n2)cc1NC(=O)c1cnn2ccc(O[C@@H]3CCOC3)cc12 [Example 220] | 100 to 1000 | < 100
Cc1ccc(-c2noc([C@H]3C[C@@H]3F)n2)cc1NC(=O)c1cnn2ccc(O[C@H]3CCOC3)cc12 [Example 221] | 100 to 1000 | < 100
Cc1ccc(-c2noc([C@H]3C[C@@H]3F)n2)cc1NC(=O)c1cnn2ccc(N3CC(F)(F)C3)cc12 [Example 222] | 100 to 1000 | < 100
Cc1ccc(-c2noc([C@H]3C[C@@H]3F)n2)cc1NC(=O)c1cnn2ccc(N3CC(F)(C(F)(F)F)C3)cc12 [Example 223] | 100 to 1000 | 100 to 1000
